From US8574563B2 (Bristol-Myers Squibb Company, priority 2006, dated 2013)

System: HCV 1b-377-neo replicon cells
Assay: HCV replicon assay, HCV 1b-377-neo replicon cells (1b FRET)
Format: cell-based, Hepatitis C virus genotype 1b
Conditions: Hepatitis C virus, HCV 1b-377-neo replicon cells; HCV 1b genotype; read-out: EC50 range against HCV 1b (Table 2, Range)
Outline: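 FRET-based replicon assay in HCV 1b-377-neo cells, including a comparison line carrying the NS5A Y2065H mutation that confers resistance to a reference compound.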

Compound	EC50 [nM]
COC(=O)N[C@H](C(=O)N1CCC[C@H]1c1ncc(-c2ccc(-c3ccc(-c4nc([C@@H]5CCCN5C(=O)[C@@H](NC(=O)OC)[C@@H](C)OC)[nH]c4CC(OC)OC)cc3)cc2)[nH]1)[C@@H](C)OC [Example J14a, methyl ((1S,2R)-1-(((2S)-2-(4-(2,2-dimethoxyethyl)-5-(4′-(2-((2S)-1-(N-(methoxycarbonyl)-O-methyl-L-threonyl)-2-pyrrolidinyl)-1H-imidazol-4-yl)-4-biphenylyl)-1H-imidazol-2-yl)-1-pyrrolidinyl)carbonyl)-2-methoxypropyl)carbamate]	0.001 to 0.999
COC(=O)N[C@@H](C(=O)N1CCC[C@H]1c1ncc(-c2ccc(-c3ccc(-c4cnc([C@@H]5CCCN5C(=O)Cc5ccsc5)[nH]4)cc3)cc2)[nH]1)c1ccccc1 [Example 84-73, methyl ((1R)-2-oxo-1-phenyl-2-((2S)-2-(5-(4′-(2-((2S)-1-(3-thienylacetyl)-2-pyrrolidinyl)-1H-imidazol-5-yl)-4-biphenylyl)-1H-imidazol-2-yl)-1-pyrrolidinyl)ethyl)carbamate]	1 to 99
CCN(CC)[C@@H](C(=O)N1CCC[C@H]1c1ncc(-c2ccc(-c3ccc(-c4cnc([C@@H]5CCCN5C(=O)C[C@@H](Cc5ccsc5)NC(=O)OC)[nH]4)cc3)cc2)[nH]1)c1ccccc1 [cj-55, methyl ((1R)-3-((2S)-2-(5-(4′-(2-((2S)-1-((2R)-2-(diethylamino)-2-phenylacetyl)-2-pyrrolidinyl)-1H-imidazol-5-yl)-4-biphenylyl)-1H-imidazol-2-yl)-1-pyrrolidinyl)-3-oxo-1-(3-thienylmethyl)propyl)carbamate]	0.001 to 0.999
COC(=O)N[C@@H](C(=O)N1CCC[C@H]1c1ncc(-c2ccc(-c3ccc(-c4cnc([C@@H]5CCCN5C(=O)OC)[nH]4)cc3)cc2)[nH]1)c1ccccc1 [Example 77, methyl (2S)-2-(5-(4′-(2-((2S)-1-((2R)-2-((methoxycarbonyl)amino)-2-phenylacetyl)-2-pyrrolidinyl)-1H-imidazol-5-yl)-4-biphenylyl)-1H-imidazol-2-yl)-1-pyrrolidinecarboxylate]	0.001 to 0.999
COC(=O)N[C@@H](C(=O)N1CCC[C@H]1c1ncc(-c2ccc(-c3ccc(-c4cnc([C@@H]5CCCN5C(=O)[C@@H](c5ccccc5Cl)N(C)C)[nH]4)cc3)cc2)[nH]1)c1ccccc1 [Example 107-36, methyl ((1R)-2-((2S)-2-(5-(4′-(2-((2S)-1-(2R)-2-(2-chlorophenyl)-2-(dimethylamino)acetyl)-2-pyrrolidinyl)-1H-imidazol-5-yl)-4-biphenylyl)-1H-imidazol-2-yl)-1-pyrrolidinyl)-2-oxo-1-phenylethyl) carbamate]	0.001 to 0.999
COC(=O)N[C@@H](C)C(=O)N1CC[C@H](O)[C@H]1c1ncc(-c2ccc(-c3ccc(-c4cnc([C@@H]5CCCN5C(=O)[C@H](C)NC(=O)OC)[nH]4)cc3)cc2)[nH]1 [OL-20, methyl ((1S)-2-((2S)-2-(4-(4′-(2-((2R,3S)-3-hydroxy-1-(N-(methoxycarbonyl)-L-alanyl)-2-pyrrolidinyl)-1H-imidazol-4-yl)-4-biphenylyl)-1H-imidazol-2-yl)-1-pyrrolidinyl)-1-methyl-2-oxoethyl)carbamate]	1 to 99
COC(=O)N[C@@H](CC(=O)N(C)C)C(=O)N1CCC[C@H]1c1ncc(-c2ccc(-c3ccc(-c4cnc([C@@H]5CCCN5C(=O)[C@@H](NC(=O)OC)C(C)C)[nH]4)cc3)cc2)[nH]1 [Example M113, methyl ((1S)-3-(dimethylamino)-1-(((2S)-2-(5-(4′-(2-((2S)-1-((2S)-2-((methoxycarbonyl)amino)-3-methylbutanoyl)-2-pyrrolidinyl)-1H-imidazol-5-yl)-4-biphenylyl)-1H-imidazol-2-yl)-1-pyrrolidinyl)carbonyl)-3-oxopropyl)carbamate]	1 to 99
COC(=O)N[C@H]1CC[C@@H](C(=O)N2CCC[C@H]2c2ncc(-c3ccc(-c4ccc(-c5cnc([C@@H]6CCCN6C(=O)[C@@H](NC(=O)OC)C(C)C)[nH]5)cc4)cc3)[nH]2)C1 [cj-61, methyl ((1S)-1-(((2S)-2-(5-(4′-(2-((2S)-1-(((1R,3S)-3-((methoxycarbonyl)amino)cyclopentyl)carbonyl)-2-pyrrolidinyl)-1H-imidazol-5-yl)-4-biphenylyl)-1H-imidazol-2-yl)-1-pyrrolidinyl)carbonyl)-2-methylpropyl)carbamate]	0.001 to 0.999
COC(=O)N[C@@H](Cc1cn(Cc2ccccc2)cn1)C(=O)N1CCC[C@H]1c1ncc(-c2ccc(-c3ccc(-c4cnc([C@@H]5CCCN5C(=O)[C@@H](NC(=O)OC)C(C)C)[nH]4)cc3)cc2)[nH]1 [cj-76, methyl ((1S)-1-(((2S)-2-(5-(4′-(2-((2S)-1-((2S)-3-(1-benzyl-1H-imidazol-4-yl)-2-((methoxycarbonyl)amino)propanoyl)-2-pyrrolidinyl)-1H-imidazol-5-yl)-4-biphenylyl)-1H-imidazol-2-yl)-1-pyrrolidinyl)carbonyl)-2-methylpropyl)carbamate]	0.001 to 0.999
COC(=O)N[C@H]1CC[C@@H](C(=O)N2CCC[C@H]2c2ncc(-c3ccc(-c4ccc(-c5cnc([C@@H]6CCCN6C(=O)[C@H](NC(=O)OC)c6ccccc6)[nH]5)cc4)cc3)[nH]2)C1 [cj-63, methyl ((1R)-2-((2S)-2-(5-(4′-(2-((2S)-1-(((1R,3S)-3-((methoxycarbonyl)amino)cyclopentyl)carbonyl)-2-pyrrolidinyl)-1H-imidazol-5-yl)-4-biphenylyl)-1H-imidazol-2-yl)-1-pyrrolidinyl)-2-oxo-1-phenylethyl)carbamate]	0.001 to 0.999
CN(C)[C@@H](C(=O)N1CCC[C@H]1c1ncc(-c2ccc(-c3ccc(-c4cnc([C@@H]5CCCN5C(=O)Cc5noc6ccccc56)[nH]4)cc3)cc2)[nH]1)c1ccccc1 [Example 94-55, (1R)-2-((2S)-2-(5-(4′-(2-((2S)-1-(1,2-benzisoxazol-3-ylacetyl)-2-pyrrolidinyl)-1H-imidazol-5-yl)-4-biphenylyl)-1H-imidazol-2-yl)-1-pyrrolidinyl)-N,N-dimethyl-2-oxo-1-phenylethanamine]	0.001 to 0.999
CO[C@H](C(=O)N1CCC[C@H]1c1ncc(-c2ccc(-c3ccc(-c4cnc([C@@H]5CCCN5C(=O)[C@@H](c5ccccc5)N5CCCCC5)[nH]4)cc3)cc2)[nH]1)c1ccccc1 [Example 107-20, 1-((1R)-2-((2S)-2-(5-(4′-(2-((2S)-1-((2S)-2-methoxy-2-phenylacetyl)-2-pyrrolidinyl)-1H-imidazol-5-yl)-4-biphenylyl)-1H-imidazol-2-yl)-1-pyrrolidinyl)-2-oxo-1-phenylethyl) piperidine]	0.001 to 0.999
COC(=O)N[C@H](C(=O)N1CCC[C@H]1c1ncc(-c2ccc(-c3ccc(-c4cnc([C@H]5CCCN5C(=O)[C@H](NC(=O)OC)C(C)C)[nH]4)cc3)cc2)[nH]1)C(C)C [Example M90, methyl ((1S)-1-(((2S)-2-(5-(4′-(2-((2R)-1-((2R)-2-((methoxycarbonyl)amino)-3-methylbutanoyl)-2-pyrrolidinyl)-1H-imidazol-5-yl)-4-biphenylyl)-1H-imidazol-2-yl)-1-pyrrolidinyl)carbonyl)-2-methylpropyl)carbamate]	1000 to 10000
COC(=O)N[C@@H](C)C(=O)N1CCC[C@H]1c1ncc(-c2ccc(-c3ccc(-c4cnc([C@@H]5CCCN5C(=O)[C@H](Cc5c[nH]nn5)NC(=O)OC)[nH]4)cc3)cc2)[nH]1 [cj-33, methyl ((1S)-2-((2S)-2-(5-(4′-(2-((2S)-1-(N-(methoxycarbonyl)-L-alanyl)-2-pyrrolidinyl)-1H-imidazol-5-yl)-4-biphenylyl)-1H-imidazol-2-yl)-1-pyrrolidinyl)-2-oxo-1-(1H-1,2,3-triazol-4-ylmethyl)ethyl)carbamate]	0.001 to 0.999
COC(=O)N[C@@H](C(=O)N1CCC[C@H]1c1ncc(-c2ccc(-c3ccc(-c4cnc([C@@H]5CCCN5C(=O)Cc5ccccc5CN5CCOCC5)[nH]4)cc3)cc2)[nH]1)c1ccccc1 [Example 84-84, methyl ((1R)-2-((2S)-2-(5-(4′-(2-((2S)-1-((2-(4-morpholinylmethyl)phenyl)acetyl)-2-pyrrolidinyl)-1H-imidazol-5-yl)-4-biphenylyl)-1H-imidazol-2-yl)-1-pyrrolidinyl)-2-oxo-1-phenylethyl)carbamate]	0.001 to 0.999
O=C([C@H](O)c1ccccc1)N1CCC[C@H]1c1ncc(-c2ccc(-c3ccc(-c4cnc([C@@H]5CCCN5C(=O)[C@H](O)c5ccccc5)[nH]4)cn3)cc2)[nH]1 [Example 133, (1R)-2-((2S)-2-(5-(6-(4-(2-((2S)-1-((2R)-2-hydroxy-2-phenylacetyl)-2-pyrrolidinyl)-1H-imidazol-5-yl)phenyl)-3-pyridinyl)-1H-imidazol-2-yl)-1-pyrrolidinyl)-2-oxo-1-phenylethanol]	1 to 99
COC(=O)N[C@@H](C(=O)N1CCC[C@H]1c1ncc(-c2ccc(-c3ccc(-c4cnc([C@@H]5CCCN5C(=O)C(c5cnc6ccccc6c5)N(C)C)[nH]4)cc3)cc2)[nH]1)c1ccccc1 (stereo partly drawn) [Example 84-52, methyl ((1R)-2-((2S)-2-(5-(4′-(2-((2S)-1-((dimethylamino)(3-quinolinyl)acetyl)-2-pyrrolidinyl)-1H-imidazol-5-yl)-4-biphenylyl)-1H-imidazol-2-yl)-1-pyrrolidinyl)-2-oxo-1-phenylethyl)carbamate]	0.001 to 0.999
COC(=O)N[C@@H](C(=O)N1CCC[C@H]1c1ncc(-c2ccc(-c3ccc(-c4cnc([C@@H]5CCCN5C(=O)Cc5cc(C)[nH]n5)[nH]4)cc3)cc2)[nH]1)c1ccccc1 [Example 84-19, methyl ((1R)-2-((2S)-2-(5-(4′-(2-((2S)-1-((5-methyl-1H-pyrazol-3-yl)acetyl)-2-pyrrolidinyl)-1H-imidazol-5-yl)-4-biphenylyl)-1H-imidazol-2-yl)-1-pyrrolidinyl)-2-oxo-1-phenylethyl)carbamate]	1 to 99
CN(C)[C@@H](C(=O)N1CCC[C@H]1c1ncc(-c2ccc(-c3ccc(-c4cnc([C@@H]5CCCN5C(=O)Cc5cccc(O)c5)[nH]4)cc3)cc2)[nH]1)c1ccccc1 [Example 94-13, 3-(2-((2S)-2-(5-(4′-(2-((2S)-1-((2R)-2-(dimethylamino)-2-phenylacetyl)-2-pyrrolidinyl)-1H-imidazol-5-yl)-4-biphenylyl)-1H-imidazol-2-yl)-1-pyrrolidinyl)-2-oxoethyl)phenol]	0.001 to 0.999
